# Earlier results in US12115179B2, “Pharmaceutical composition, methods for treating and uses thereof” (Boehringer Ingelheim International GmbH, priority 2009, dated 2024).
# Details: metformin on its own, in the diabetic
smiles,measurement,value
"CN(C)C(=N)N=C(N)N [Met, metformin]",average improvement in the HbA1c value,1.0-1.5%
